Values after ≈ are worked out from the molar mass of the structure shown.
Assays:
[1] = system: Candida albicans; assay: Antifungal activity against Candida albicans CAI4-R1 assessed as growth inhibition after 24 hrs by NCCLS broth microdilution method; type: functional; conditions: CAI4-R1, 24 h
[2] = system: Cryptococcus neoformans; assay: Antifungal activity against capsular wild type Cryptococcus neoformans MY2061 assessed as growth inhibition after 24 hrs by NCCLS broth microdilution method; type: functional; conditions: MY2061, 24 h, read-out: MIC100
[3] = system: Aspergillus fumigatus; assay: Antifungal activity against Aspergillus fumigatus MF5668 caspofungin spontaneous resistance mutant assessed as growth inhibition after 24 hrs by NCCLS broth microdilution method; type: functional; conditions: MF5668, 24 h
[4] = system: Candida albicans; assay: Antifungal activity against wild type Candida albicans CAI4 assessed as growth inhibition after 24 hrs by NCCLS broth microdilution method; type: functional; conditions: CAI4, 24 h
[5] = system: Staphylococcus aureus; assay: Antibacterial activity against methicillin-sensitive Staphylococcus aureus MB2865 assessed as growth inhibition after 24 hrs by NCCLS broth microdilution method; type: functional; conditions: MB2865, 24 h, read-out: MIC100
[6] = system: Clavispora lusitaniae; assay: Antifungal activity against wild type Candida lusitaniae MY1396 assessed as growth inhibition after 24 hrs by NCCLS broth microdilution method; type: functional; conditions: MY1396, 24 h
[7] = system: Candida albicans; assay: Antifungal activity against wild type Candida albicans MY1055 assessed as growth inhibition after 24 hrs by NCCLS broth microdilution method; type: functional; conditions: MY1055, 24 h
[8] = system: Nakaseomyces glabratus; assay: Antifungal activity against wild type Candida glabrata MY1381 assessed as growth inhibition after 24 hrs by NCCLS broth microdilution method; type: functional; conditions: MY1381, 24 h
[9] = Inhibition of caspofungin-resistant Candida albicans CLY-16996 1,3-beta-D-glucan synthase component FKS1/FKS1 S645F mutant using UDP[6,3H]-glucose as substrate after 60 mins by liquid scintillation counting analysis
[10] = system: Candida albicans; assay: Antifungal activity against caspofungin-resistant Candida albicans CLY-16996 harboring 1,3-beta-D-glucan synthase component FKS1/FKS1 S645F mutant assessed as growth inhibition after 24 hrs by NCCLS broth microdilution method; type: functional; conditions: CLY-16996, 24 h
[11] = system: Escherichia coli; assay: Antibacterial activity against Escherichia coli ATCC 25922 assessed as growth inhibition after 24 hrs by NCCLS broth microdilution method; type: functional; conditions: ATCC 25922, 24 h, read-out: MIC100
[12] = system: Candida albicans; assay: Antifungal activity against Candida albicans NR3 assessed as growth inhibition after 24 hrs by NCCLS broth microdilution method; type: functional; conditions: NR3, 24 h
[13] = Inhibition of caspofungin-resistant Candida albicans CLY-16997 1,3-beta-D-glucan synthase component FKS1/FKS1 S645P mutant using UDP[6,3H]-glucose as substrate after 60 mins by liquid scintillation counting analysis
[14] = target: T1, Beta-1,3-glucan synthase (Candida albicans, UniProt O13383); assay: Inhibition of wild type Candida albicans MY1055 1,3-beta-D-glucan synthase using UDP[6,3H]-glucose as substrate after 60 mins by liquid scintillation counting analysis
T1 sequence (O13383 whole entry): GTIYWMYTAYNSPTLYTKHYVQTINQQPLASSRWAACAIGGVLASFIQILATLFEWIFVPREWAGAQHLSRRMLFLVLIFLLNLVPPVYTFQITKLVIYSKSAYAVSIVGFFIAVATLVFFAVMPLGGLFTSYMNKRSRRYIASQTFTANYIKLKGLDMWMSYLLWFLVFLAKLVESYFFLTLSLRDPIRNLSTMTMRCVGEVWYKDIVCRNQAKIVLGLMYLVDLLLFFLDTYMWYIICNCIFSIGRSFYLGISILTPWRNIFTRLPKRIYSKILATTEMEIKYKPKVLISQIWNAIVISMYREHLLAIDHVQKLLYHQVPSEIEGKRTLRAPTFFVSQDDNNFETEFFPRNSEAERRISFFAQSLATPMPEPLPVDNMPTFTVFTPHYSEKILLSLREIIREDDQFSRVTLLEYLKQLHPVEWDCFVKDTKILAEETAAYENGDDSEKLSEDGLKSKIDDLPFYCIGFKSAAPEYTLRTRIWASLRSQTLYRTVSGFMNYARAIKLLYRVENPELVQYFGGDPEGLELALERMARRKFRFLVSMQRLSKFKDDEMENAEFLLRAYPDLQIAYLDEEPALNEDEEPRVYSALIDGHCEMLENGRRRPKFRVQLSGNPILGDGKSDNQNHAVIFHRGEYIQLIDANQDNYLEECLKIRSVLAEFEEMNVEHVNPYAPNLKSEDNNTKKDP

[15] = system: Pichia kudriavzevii; assay: Antifungal activity against wild type Candida krusei CLY549 assessed as growth inhibition after 24 hrs by NCCLS broth microdilution method; type: functional; conditions: CLY549, 24 h
[16] = system: Meyerozyma guilliermondii; assay: Antifungal activity against wild type Candida guilliermondii CLY308 assessed as growth inhibition after 24 hrs by NCCLS broth microdilution method; type: functional; conditions: CLY308, 24 h
[17] = system: Candida albicans; assay: Antifungal activity against wild type Candida albicans MY1055 assessed as growth inhibition after 24 hrs by NCCLS broth microdilution method in presence of human serum; type: functional; conditions: MY1055, 24 h
[18] = system: Candida parapsilosis; assay: Antifungal activity against wild type Candida parapsilosis ATCC 22019 assessed as growth inhibition after 24 hrs by NCCLS broth microdilution method; type: functional; conditions: Lodderomyces parapsilosis, ATCC 22019, 24 h
[19] = system: Candida albicans; assay: Antifungal activity against Candida albicans MY1055 infected in DBA/2 mouse assessed as reduction of log CFU in kidney administered 30 mins as ip tid post infection measured after 24 hrs; type: functional

CC[C@H](C)C[C@H](C)CCCCCCCCC(=O)N[C@H]1C[C@@H](O)[C@@H](NCCN)NC(=O)[C@@H]2[C@@H](O)CCN2C(=O)[C@H]([C@H](O)CCN)NC(=O)[C@H]([C@H](O)[C@@H](O)c2ccc(O)cc2)NC(=O)[C@@H]2C[C@@H](O)CN2C(=O)[C@H]([C@@H](C)O)NC1=O [CASPOFUNGIN]
MIC80 [1]: 1 µg/mL (≈ 0.915 µM)
MIC ([1]; read-out: MIC100): > 32 µg/mL
MIC [2]: 16 µg/mL (≈ 14.6 µM)
MIC80 [3]: < 0.03 µg/mL
minimal effective concentration ([3]; read-out: MEC): > 32 µg/mL
MIC80 [4]: < 0.03 µg/mL
MIC ([4]; read-out: MIC100): 0.125 µg/mL (≈ 0.114 µM)
MIC [5]: 32 µg/mL (≈ 29.3 µM)
MIC80 [6]: < 0.03 µg/mL
MIC ([6]; read-out: MIC100): 0.5 µg/mL (≈ 0.457 µM)
MIC80 [7]: < 0.03 µg/mL
MIC ([7]; read-out: MIC100): 0.06 µg/mL (≈ 0.0549 µM)
MIC80 [8]: 0.06 µg/mL (≈ 0.0549 µM)
MIC ([8]; read-out: MIC100): 0.25 µg/mL (≈ 0.229 µM)
IC50 [9]: > 92 µM
MIC [10]: 64 µg/mL (≈ 58.5 µM)
MIC [11]: > 32 µg/mL
MIC80 [12]: 2 µg/mL (≈ 1.83 µM)
MIC ([12]; read-out: MIC100): > 32 µg/mL
IC50 [13]: > 9.2 µM
IC50 [14]: 0.00024 µM
MIC80 [15]: 0.25 µg/mL (≈ 0.229 µM)
MIC ([15]; read-out: MIC100): 2 µg/mL (≈ 1.83 µM)
MIC80 [16]: 0.25 µg/mL (≈ 0.229 µM)
MIC ([16]; read-out: MIC100): 1 µg/mL (≈ 0.915 µM)
MIC80 [17]: 0.125 µg/mL
MIC ([17]; read-out: MIC100): 8 µg/mL
MIC80 [18]: 0.25 µg/mL (≈ 0.229 µM)
MIC ([18]; read-out: MIC100): > 32 µg/mL
ED90 [19]: 0.02 mg/kg/day
ED99 [19]: 0.15 mg/kg/day

From ChEMBL document CHEMBL2385047, “Synthesis and antifungal evaluation of pentyloxyl-diphenylisoxazoloyl pneumocandins and echinocandins” (Bioorg Med Chem Lett, 2013)
